Laboratory results taken from US10253002B2, “Compounds and methods of treating infections” (Neoculi Pty Ltd., priority 2013, dated 2019).
“And” between values parts separate entries of the source, which are not always exact repeats. Equal entries are not always repeated. Where two headings read alike, the source gives them in different places.

What was measured:
S. pneumoniae strain D39 [1] = test: microbe, parasite or virus in culture; type: cell-based; conditions: Streptococcus pneumoniae
Procedure: Macro-broth dilutions were prepared as above. […] Samples were centrifuged at a relative centrifugal force (RCF) of 101.45×g for 10 min and washed in 50 mL of phosphate buffered saline (PBS) twice to remove any residual antimicrobial, and/or bacterial end products and media. Washed bacteria were resuspended and MICs were performed.

S. pneumoniae strain D39 [2] = test: Micro-broth dilution time kill studies; type: cell-based, Streptococcus pneumoniae; conditions: D39 treated with 54 μg/mL NCL812
[3] = system: cell wall synthesis in S. aureus ATCC 29213; test: Macromolecular synthesis assay: cell wall synthesis ([14C]N-acetylglucosamine); type: cell-based, Staphylococcus aureus
Procedure: Cells were grown at 35° C. overnight on Trypticase Soy agar. A colony from the plate was used to inoculate 10 ml of Mueller Hinton broth II (MHBII), and the culture was grown to early exponential growth phase (OD600==0.2 to 0.3) while incubating in a shaker at 35° C. and 200 rpm.
Bacterial cells in early exponential growth phase were transferred to M9 minimal medium and added to 1.5 mL eppendorf tubes (100 μL/tube) containing various concentrations of test compound or control antibiotics (5 μL) at 20× the final concentration in 100% DMSO as described above. Following a 5 min incubation at 37° C., [^14C]N-acetylglucosamine (0.4 μCi/reaction) was added to each tube and incubated for 45 min in a 37° C. heating block. Reactions were stopped through the addition of 100 μL of 8% SDS to each tube. Reactions were then heated at 95° C. for 30 min in a heating block, cooled, briefly centrifuged, and spotted onto pre-wet HA filters ([…]). After washing three times with 5 mL of 0.1% SDS, the filters were rinsed two times with 5 ml of deionized water, allowed to dry, and then counted using a Beckman LS3801 liquid scintillation counter.

[4] = system: ATP release from S. aureus ATCC 29213; test: ATP release assay (CellTiter-Glo); type: cell-based, Staphylococcus aureus; conditions: at the MIC ([…] μg/ml); 30 min exposure
Procedure: The CellTiter-Glo Luminescent Cell Viability Assay (Promega) was utilized to measure the leakage of ATP from bacteria. […] The negative control received 2% DMSO, which represented the final DMSO concentration in each assay. After a 30 min exposure to drug, cells were sedimented by centrifugation and the supernatant was analyzed for the presence of ATP. Results were expressed as ATP concentration released to the medium (μM).

VRE isolates = test: MBC (CLSI methodology), Example 7; type: cell-based, Enterococcus spp.; design: key: M = many bacteria growing on the plate (too many to count)
[5] = Solubility in DMSO and CAMHB, Example 4
Source text: Test antimicrobials were selected on the basis of solubility and antimicrobial activity from preliminary studies.

E. faecalis USA01 = test: Kill kinetics assay, Example 8; type: cell-based, Enterococcus faecalis
Procedure: (§1) S. aureus KC01 and E. faecalis USA01, not determined to be MRSA or VRE, respectively, were grown overnight on Columbia SBA at 37° C. A few colonies of bacteria were then suspended in CAMHB (cation-adjusted Mueller Hinton broth) and adjusted to OD600 of 0.08 to 0.10. The bacterial suspension was diluted 1:10. […] The tubes were incubated at 37° C., with constant shaking. In order to determine the number of viable bacteria present at various time points, a 100 μL aliquot was removed from each tube and diluted. Then, 100 μL of each dilution were spread onto colony count agar, in duplicate, and incubated for 48 h at 37° C. After 24 h the numbers of colonies present on each plate were counted and therefore the number of viable bacteria present in the original suspension enumerated. Plates were re-checked after 48 hours.

MRSA = test: Kill kinetics assay, Example 7; type: cell-based, Staphylococcus aureus
Procedure: as §1, with “MRSA/VRE were” for “S. aureus KC01 and E. faecalis USA01, not determined to be MRSA or VRE, respectively, were”, “CAMHB” for “CAMHB (cation-adjusted Mueller Hinton broth)”, “to an optical density” for “to OD600”, “37° C.” for “37° C., with constant shaking.”, “and diluted in normal saline.” for “and diluted.”, “dilution was” for “dilution were”

Question: For `CC1(C)S[C@@H]2[C@H](NC(=O)[C@H](N)c3ccccc3)C(=O)N2[C@H]1C(=O)O` [Ampicillin], which MBC (S. pneumoniae strain D39 [1]; D39, 6 h, read-out: MBC of D39 following exposure to NCL-812 for 6 hrs) is on record?
Answer: 0.023 µg/mL

Question: What about the MIC (S. pneumoniae strain D39 [1]; D39, 6 h, read-out: MIC of D39 following exposure to NCL-812 for 6 hrs.) of the same compound?
Answer: 0.045 µg/mL

Question: What about the MBC (S. pneumoniae strain D39 [1]; D39, read-out: Original MBC of D39) of the same compound?
Answer: 0.023 µg/mL

Question: And the MIC (S. pneumoniae strain D39 [1]; D39, read-out: Original MIC of D39)?
Answer: 0.023 µg/mL

Question: With `N=C(N/N=C/c1ccc(Cl)cc1)N/N=C/c1ccc(Cl)cc1` [NCL812, 1,3-bis[(E)-(4-chlorophenyl)methyleneamino]guanidine] as the compound, how does the “time at which treated D39 entered a log phase of growth” value (S. pneumoniae strain D39 [2]) read?
Answer: 6 h

Question: What about the “inhibition of cell wall synthesis” value ([3]; 4 fold the MIC) of the same compound?
Answer: approximately 68%

Question: And the “inhibition of cell wall synthesis” value ([3]; 8 fold the MIC)?
Answer: ~52%

Question: And the “maximal ATP release” value [4]?
Answer: 0.33 µM

Question: And the “NCL812 MBC: number of bacteria growing after 24 hours per ml of sample” value (“NCL812 MBC: number … per ml of sample” below) (VRE isolates; VRE 12c, NCL812 2 μg/ml)?
Answer: 0 CFU/ml

Question: And the “NCL812 MBC: number … per ml of sample” value (VRE isolates; VRE 12c, NCL812 16 μg/ml)?
Answer: M

Question: And the “NCL812 MBC: number … per ml of sample” value (VRE isolates; VRE 12c, NCL812 32 μg/ml)?
Answer: M

Question: What about the “NCL812 MBC: number … per ml of sample” value (VRE isolates; VRE 12c, NCL812 64 μg/ml) of the same compound?
Answer: M

Question: What about the “NCL812 MBC: number … per ml of sample” value (VRE isolates; VRE 12c, NCL812 […]) of the same compound?
Answer: M

Question: What about the “NCL812 MBC: number … per ml of sample” value (VRE isolates; VRE 14t, NCL812 4 μg/ml) of the same compound?
Answer: 0 CFU/ml

Question: And the “NCL812 MBC: number … per ml of sample” value (VRE isolates; VRE 14t, NCL812 […])?
Answer: M

Question: What about the “NCL812 MBC: number … per ml of sample” value (VRE isolates; VRE 16c(dc), NCL812 16 μg/ml) of the same compound?
Answer: M

Question: And the “NCL812 MBC: number … per ml of sample” value (VRE isolates; VRE 16c(dc), NCL812 32 μg/ml)?
Answer: M

Question: And the “NCL812 MBC: number … per ml of sample” value (VRE isolates; VRE 16c(dc), NCL812 64 μg/ml)?
Answer: M

Question: What about the “NCL812 MBC: number … per ml of sample” value (VRE isolates; VRE 16c(dc), NCL812 […]) of the same compound?
Answer: M

Question: What about the “NCL812 MBC: number … per ml of sample” value (VRE isolates; VRE 16c, NCL812 4 μg/ml) of the same compound?
Answer: 820 CFU/ml and 790 CFU/ml

Question: And the “NCL812 MBC: number … per ml of sample” value (VRE isolates; VRE 16c, NCL812 8 μg/ml)?
Answer: 980 CFU/ml and 890 CFU/ml

Question: What about the “NCL812 MBC: number … per ml of sample” value (VRE isolates; VRE 16c, NCL812 16 μg/ml) of the same compound?
Answer: M

Question: And the “NCL812 MBC: number … per ml of sample” value (VRE isolates; VRE 16c, NCL812 32 μg/ml)?
Answer: M

Question: What about the “NCL812 MBC: number … per ml of sample” value (VRE isolates; VRE 16c, NCL812 64 μg/ml) of the same compound?
Answer: M

Question: What about the “NCL812 MBC: number … per ml of sample” value (VRE isolates; VRE 16c, NCL812 […]) of the same compound?
Answer: M

Question: And the “NCL812 MBC: number … per ml of sample” value (VRE isolates; VRE 19t, NCL812 4 μg/ml)?
Answer: 0 CFU/ml

Question: And the “NCL812 MBC: number … per ml of sample” value (VRE isolates; VRE 19t, NCL812 8 μg/ml)?
Answer: 0 CFU/ml

Question: What about the “NCL812 MBC: number … per ml of sample” value (VRE isolates; VRE 19t, NCL812 […]) of the same compound?
Answer: M

Question: What about the “NCL812 MBC: number … per ml of sample” value (VRE isolates; VRE 23c, NCL812 2 μg/ml) of the same compound?
Answer: 0 CFU/ml

Question: What about the “NCL812 MBC: number … per ml of sample” value (VRE isolates; VRE 23c, NCL812 64 μg/ml) of the same compound?
Answer: M

Question: And the “NCL812 MBC: number … per ml of sample” value (VRE isolates; VRE 23c, NCL812 […])?
Answer: M

Question: And the “NCL812 MBC: number … per ml of sample” value (VRE isolates; VRE 25c, NCL812 8 μg/ml)?
Answer: M

Question: And the “NCL812 MBC: number … per ml of sample” value (VRE isolates; VRE 25c, NCL812 16 μg/ml)?
Answer: M

Question: What about the “NCL812 MBC: number … per ml of sample” value (VRE isolates; VRE 25c, NCL812 32 μg/ml) of the same compound?
Answer: M

Question: What about the “NCL812 MBC: number … per ml of sample” value (VRE isolates; VRE 25c, NCL812 64 μg/ml) of the same compound?
Answer: M

Question: What about the “NCL812 MBC: number … per ml of sample” value (VRE isolates; VRE 25c, NCL812 […]) of the same compound?
Answer: M

Question: And the “NCL812 MBC: number … per ml of sample” value (VRE isolates; VRE 26c(dc), NCL812 8 μg/ml)?
Answer: 4000 CFU/ml and 3500 CFU/ml

Question: What about the “NCL812 MBC: number … per ml of sample” value (VRE isolates; VRE 26c(dc), NCL812 16 μg/ml) of the same compound?
Answer: M

Question: And the “NCL812 MBC: number … per ml of sample” value (VRE isolates; VRE 26c(dc), NCL812 32 μg/ml)?
Answer: M

Question: And the “NCL812 MBC: number … per ml of sample” value (VRE isolates; VRE 26c(dc), NCL812 64 μg/ml)?
Answer: M

Question: And the “NCL812 MBC: number … per ml of sample” value (VRE isolates; VRE 26c(dc), NCL812 […])?
Answer: M

Question: What about the “NCL812 MBC: number … per ml of sample” value (VRE isolates; VRE 35t, NCL812 2 μg/ml) of the same compound?
Answer: 0 CFU/ml

Question: What about the “NCL812 MBC: number … per ml of sample” value (VRE isolates; VRE 35t, NCL812 4 μg/ml) of the same compound?
Answer: 0 CFU/ml

Question: What about the “NCL812 MBC: number … per ml of sample” value (VRE isolates; VRE 35t, NCL812 8 μg/ml) of the same compound?
Answer: 0 CFU/ml

Question: What about the “NCL812 MBC: number … per ml of sample” value (VRE isolates; VRE 37c, NCL812 4 μg/ml) of the same compound?
Answer: 100 CFU/ml and 50 CFU/ml

Question: What about the “NCL812 MBC: number … per ml of sample” value (VRE isolates; VRE 37c, NCL812 64 μg/ml) of the same compound?
Answer: M

Question: And the “NCL812 MBC: number … per ml of sample” value (VRE isolates; VRE 37c, NCL812 […])?
Answer: M

Question: And the “Solubility CAMHB” value ([5]; cation-adjusted Mueller-Hinton II broth)?
Answer: Cloudy precipitates

Question: What about the “Solubility DMSO” value ([5]; dimethyl sulfoxide) of the same compound?
Answer: Good

Question: What about the “rise in bacterial numbers” value (E. faecalis USA01; 32 and 64 μg/mL, until the 6 h time point) of the same compound?
Answer: ~1 log10

Question: And the “reduction in CFU/mL compared to the growth control” value (E. faecalis USA01; 2 h)?
Answer: 2 log10

Question: And the “reduction in CFU/mL compared to the original bacterial numbers” value (E. faecalis USA01; 2 h)?
Answer: greater than 1 log10

Question: And the “bacterial numbers versus growth control” value (E. faecalis USA01; at 24 h, all concentrations)?
Answer: increased to almost the same level as the growth control

Question: What about the “numbers of bacteria versus control” value (MRSA; after 24 h, all NCL812 concentrations) of the same compound?
Answer: not significantly different to the control

Question: And the “reduction in comparison to the growth control” value (MRSA; at 4 h)?
Answer: at least 2.5 log10 CFU/mL

Question: What about the “difference between the control and bacteria exposed to NCL812” value (MRSA; at 8 h) of the same compound?
Answer: ≥ 3.5 log10 CFU/mL
